Values of other authors in paper PMC9474474, “Determination of pharmacokinetics and tissue distribution of a novel lutetium-labeled PSMA-targeted ligand, ^177Lu-DOTA-PSMA-GUL, in rats by using LC–MS/MS” (Scientific Reports, 2022).

Design: method as in PMID 26985056
Conditions: cited from earlier work

O=C([O-])CN1CCN(CC(=O)[O-])CCN(CC(=O)NCC2CCC(C(=O)N[C@@H](Cc3ccc4ccccc4c3)C(=O)NCCCC[C@H](NC(=O)N[C@@H](CCC(=O)O)C(=O)O)C(=O)O)CC2)CCN(CC(=O)[O-])CC1.[177Lu+3] (some centres unmarked) [^177Lu-PSMA-617]
elimination half-life (humans, radioactivity study): 90 h
eliminated by urine (patients with PSMA-positive tumor phenotype): approximately 50%
